Broadly, the MTD is the highest dose tested that stayed within the study's limit of toxicity.

The text below walks through data of patent US4241052A, “Novel nitrosourea compounds and process for preparing the same” (Tanabe Seiyaku Co., Ltd., priority 1978, dated 1980).

For data set [1], the system named is Ehrlich ascites carcinoma. The experiment in a line: Preventive effect against the growth of Ehrlich ascites carcinoma (Method A). In kind it is in vivo, mice (ICR, female). The settings on record: for therapeutic index (M.T.D./M.E.D.), times greater than that of GANU: Ehrlich ascites tumor, relative to GANU; for inhibition in vivo at 0.39 mg/kg: 0.39 mg/kg/day i.p.; for inhibition in vivo at 0.78 mg/kg: 0.78 mg/kg/day i.p.; for inhibition in vivo at 1.56 mg/kg: 1.56 mg/kg/day i.p.; for inhibition in vivo at 25 mg/kg: 25 mg/kg/day i.p.; for inhibition in vivo at 400 mg/kg: 400 mg/kg/day i.p.; for minimal effective dose: 168 h, min dose, 100% inhibition, read-out: MED (Minimum Effective Dose); for inhibition in vivo at 0.19 mg/kg: 0.19 mg/kg/day i.p. As for the experimental part: (§1) (A) Preventive effect against the growth of Ehrlich ascites tumor
(§2) 10^6 tumor cells of Ehrlich ascites carcinoma were inoculated intraperitoneally into a group of five femal mice (ICR mice, body weight: 19-23 g). A test compound was dissolved in a physiological saline solution and administered intraperitoneally to the mice. The administration of the test compound was began 24 hours after the inoculation of the tumor cells and performed once a day for 5 days. The volume of ascites in the treated mice were measured after 7 days of the experiment.

Assay in data set [2]: as above
It counts as in vivo, mice (ICR, female). The settings on record: mouse, in vivo, ip; max dose, 100% inhibition without death; doses of the table in mg/kg/day; read-out: MTD (Maximum Tolerated Dose). As for the experimental part: as §1, §2

Data set [3] concerns Leukemia L-1210. As to the kind of experiment: Effect on life span of mice implanted with leukemic cells of L-1210 (Method B). In kind it is in vivo, mice (BDF1, male). The settings on record: five consecutive days. As for the experimental part: (B) Effect on the life span of mice implanted with leukemic cells of L-1210
10^5 leukemic cells of L-1210 were inoculated intraperitoneally into a group of four male mice (BDF1 mice, body weight: 19-23 g). A test compound was dissolved in a physiological saline solution and administered intraperitoneally to the mice. The administration of the test compound was began 24 hours after the inoculation of the leukemic cells and performed once a day for 5 days. The survival days of the treated mice were observed.

The mark [4] stands for this setting: Mus musculus, Ehrlich, ip, 120 h, 5 days, read-out: Inhibition ratio.
Where [5] appears, read: Mus musculus, Ehrlich, ip, 120 h, 6.25 mg/kg/day i.p., 5 days, read-out: Inhibition ratio.
[6] abbreviates: Mus musculus, Ehrlich, ip, 120 h, 100 mg/kg/day i.p., 5 days, read-out: Inhibition ratio.
Where [7] appears, read: Mus musculus, Ehrlich, ip, doses of the table in mg/kg/day.
The mark [8] stands for this setting: Mus musculus, Ehrlich, ip, 120 h, 3.12 mg/kg/day i.p., 5 days, read-out: Inhibition ratio.

Take `O=NN(CCCl)C(=O)N(Cc1cccs1)C1O[C@H](CO)[C@@H](O[C@H]2O[C@H](CO)[C@@H](O)[C@H](O)[C@H]2O)[C@H](O)[C@H]1O` (some centres unmarked): the “therapeutic index (M.T.D./M.E.D.), times greater than that of GANU” value (from here on “therapeutic index … of GANU”) in data set [1] is “about 8 times”.

`COc1ccc(CN(C(=O)N(CCCl)N=O)C2O[C@H](CO)[C@@H](O[C@H]3O[C@H](CO)[C@@H](O)[C@H](O)[C@H]3O)[C@H](O)[C@H]2O)cc1` (some centres unmarked): in data set [1], the “therapeutic index … of GANU” value is on record as “about 8 times”.

Regarding `O=NN(CCCl)C(=O)N(Cc1cccs1)C1O[C@H](CO)[C@@H](O[C@H]2O[C@H](CO)[C@@H](O)[C@H](O)[C@H]2O)[C@H](O)[C@H]1O` (stereo partly drawn) [Compound 7, 1-(2-chloroethyl)-1-nitroso-3-(thiophen-2-yl-methyl)-3-[O-α-D-glucopyranosyl-(1→4)-D-glucopyranosyl]urea], the MTD at 168 h in data set [2] was 400 mg/kg/day. Further, the “Toxic (number of mice died/number of mice used)” value in data set [1] (800 mg/kg/day i.p., 5 days) is recorded as 5/5. In addition, in data set [1], the “Therapeutic index (MTD/MED)” value worked out at 256. Besides, in data set [1] (setting [4]), the inhibition in vivo at 0.39 mg/kg amounted to 6.2%, the inhibition in vivo at 0.78 mg/kg is 31.2%, the inhibition in vivo at 1.56 mg/kg was 100% and the inhibition in vivo at 25 mg/kg was found to be 100%. In data set [1] (setting [4]), the inhibition in vivo at 400 mg/kg was determined as 100%. The inhibition in vivo at 6.25 mg/kg in data set [1] (setting [5]) came to 100%. Also, the inhibition in vivo at 100 mg/kg in data set [1] (setting [6]) was found to be 100%. The minimal effective dose in data set [1] (setting [7]) is 1.56 mg/kg/day.

With `O=NN(CCCl)C(=O)N(Cc1cccs1)C1OC[C@H](O)[C@H](O)[C@H]1O` (stereo partly drawn) [1-(2-chloroethyl)-1-nitroso-3-(thiophen-2-yl-methyl)-3-(L-arabinopyranosyl)urea], the “increase in the average life span” value in data set [3] (0.35 mg/kg i.p.) is given as “about 30%”.

On to `O=NN(CCCl)C(=O)NC1CCCCC1` [CCNU, 1-(2-chloroethyl)-1-nitroso-3-cyclohexylurea, reference compound], for which the Inhibition ratio in data set [1] (3.12 mg/kg/day i.p., 5 days) was found to be 21.1%; in data set [1] (6.25 mg/kg/day i.p., 5 days), 33.3%; in data set [1] (12.5 mg/kg/day i.p., 5 days), 100%; in data set [1] (50 mg/kg/day i.p., 5 days), 100%. Besides, in data set [1] (100 mg/kg/day i.p., 5 days), the “Toxic (number of mice died/number of mice used)” value is given as 5/5. For the same molecule, in data set [1], the “Therapeutic index (MTD/MED)” value is on record as 4. The “MTD (Maximum Tolerated Dose)” value in data set [1] (max dose, 100% inhibition without death, doses of the table in mg/kg/day, 10080 min) was 50.

`O=NN(CCCl)C(=O)N(CC1CO1)C1OC[C@H](O)[C@H](O)[C@H]1O` (stereo partly drawn) [Compound 12, 1-(2-chloroethyl)-1-nitroso-3-(oxiran-2-yl-methyl)-3-(L-arabinopyranosyl)urea]: the MTD at 168 h in data set [2] was 50 mg/kg/day. For the same molecule, the “Toxic (number of mice died/number of mice used)” value in data set [1] (100 mg/kg/day i.p., 5 days) was 5/5. The “Therapeutic index (MTD/MED)” value in data set [1] stood at 128. Moreover, in data set [1] (setting [4]), the inhibition in vivo at 0.19 mg/kg stood at 20.9%, the inhibition in vivo at 0.39 mg/kg was found to be 100% and the inhibition in vivo at 0.78 mg/kg was determined as 100%. For the same molecule, the inhibition in vivo at 3.12 mg/kg in data set [1] (setting [8]) turned out to be 100%. Besides, the inhibition in vivo at 12.5 mg/kg in data set [1] (Mus musculus, Ehrlich, ip, 120 h, 12.5 mg/kg/day i.p., 5 days, read-out: Inhibition ratio) is 100%. In addition, in data set [1] (Mus musculus, Ehrlich, ip, 120 h, 50 mg/kg/day i.p., 5 days, read-out: Inhibition ratio), the inhibition in vivo at 50 mg/kg came out at 100%. The minimal effective dose in data set [1] (setting [7]) is 0.39 mg/kg/day.

Take `O=NN(CCCl)C(=O)N(Cc1ccccc1)C1OC[C@H](O)[C@H](O)[C@H]1O` (stereo partly drawn) [Compound 11, 1-(2-chloroethyl)-1-nitroso-3-benzyl-3-(L-arabinopyranosyl)urea]: the MTD at 168 h in data set [2] was found to be 100 mg/kg/day. The “Toxic (number of mice died/number of mice used)” value in data set [1] (200 mg/kg/day i.p., 5 days) is 5/5. Also, the “Therapeutic index (MTD/MED)” value in data set [1] is given as 128. Besides, in data set [1] (setting [4]), the inhibition in vivo at 0.19 mg/kg was found to be 18.4%, the inhibition in vivo at 0.39 mg/kg was 65.3%, the inhibition in vivo at 0.78 mg/kg is 100% and the inhibition in vivo at 1.56 mg/kg was 100%. Moreover, in data set [1] (setting [4]), the inhibition in vivo at 25 mg/kg was 100%. In data set [1] (setting [5]), the inhibition in vivo at 6.25 mg/kg amounted to 100%. Also, the inhibition in vivo at 100 mg/kg in data set [1] (setting [6]) is 100%. Further, the minimal effective dose in data set [1] (setting [7]) stood at 0.78 mg/kg/day.

As for `O=NN(CCCl)C(=O)N(CC1CC1)C1OC[C@H](O)[C@H](O)[C@H]1O` (stereo partly drawn) [1-(2-chloroethyl)-1-nitroso-3-cyclopropylmethyl-3-(L-arabinopyranosyl)urea], the “increase in the average life span” value in data set [3] (1.1 mg/kg i.p.) is “about 30%”.

In the case of `O=NN(CCCl)C(=O)N(CC1CCCO1)C1O[C@H](CO)[C@H](O)[C@H](O)[C@H]1O` (stereo partly drawn) [1-(2-chloroethyl)-1-nitroso-3-tetrahydrofurfuryl-3-(D-galactopyranosyl)urea], the “increase in the average life span” value in data set [3] (1.7 mg/kg i.p.) is recorded as “about 30%”.

Take `O=NN(CCCl)C(=O)N(CC1CO1)C1OC[C@H](O)[C@H](O)[C@H]1O` (stereo partly drawn) [1-(2-chloroethyl)-1-nitroso-3-(oxiran-2-yl-methyl)-3-(L-arabinopyranosyl)urea]: the “increase in the average life span” value in data set [3] (1.05 mg/kg i.p.) is “about 30%”.

Turning to `Cc1ccc(CN(C(=O)N(CCCl)N=O)C2O[C@H](CO)[C@@H](O[C@H]3O[C@H](CO)[C@@H](O)[C@H](O)[C@H]3O)[C@H](O)[C@H]2O)cc1` (stereo partly drawn) [Compound 2, 1-(2-chloroethyl)-1-nitroso-3-(p-methylbenzyl)-3-[O-α-D-glucopyranosyl-(1→4)-D-glucopyranosyl]urea], the MTD at 168 h in data set [2] is 400 mg/kg/day. For the same molecule, the “Toxic (number of mice died/number of mice used)” value in data set [1] (800 mg/kg/day i.p., 5 days) is 5/5. For the same molecule, the “Therapeutic index (MTD/MED)” value in data set [1] is 256. In data set [1] (setting [4]), the inhibition in vivo at 0.39 mg/kg was 12.8%, the inhibition in vivo at 0.78 mg/kg was 74.4%, the inhibition in vivo at 1.56 mg/kg was determined as 100% and the inhibition in vivo at 25 mg/kg was 100%. Besides, in data set [1] (setting [4]), the inhibition in vivo at 400 mg/kg amounted to 100%. Also, the inhibition in vivo at 6.25 mg/kg in data set [1] (setting [5]) turned out to be 100%. The inhibition in vivo at 100 mg/kg in data set [1] (setting [6]) was 100%. Further, the minimal effective dose in data set [1] (setting [7]) is 1.56 mg/kg/day.

`CC(c1ccccc1)N(C(=O)N(CCCl)N=O)C1O[C@H](CO)[C@@H](O[C@H]2O[C@H](CO)[C@@H](O)[C@H](O)[C@H]2O)[C@H](O)[C@H]1O` (stereo partly drawn) [Compound 5, 1-(2-chloroethyl)-1-nitroso-3-(α-methylbenzyl)-3-[O-α-D-glucopyranosyl-(1→4)-D-glucopyranosyl]urea]: the MTD at 168 h in data set [2] was 400 mg/kg/day. In addition, the “Toxic (number of mice died/number of mice used)” value in data set [1] (800 mg/kg/day i.p., 5 days) is reported as 4/5. In addition, the “Therapeutic index (MTD/MED)” value in data set [1] was 128. Further, in data set [1] (setting [4]), the inhibition in vivo at 1.56 mg/kg came out at 6.2%, the inhibition in vivo at 25 mg/kg was determined as 100% and the inhibition in vivo at 400 mg/kg was 100%. Besides, the inhibition in vivo at 3.12 mg/kg in data set [1] (setting [8]) was determined as 100%. Also, the inhibition in vivo at 6.25 mg/kg in data set [1] (setting [5]) is 100%. For the same molecule, the inhibition in vivo at 100 mg/kg in data set [1] (setting [6]) was 100%. Further, the minimal effective dose in data set [1] (setting [7]) came out at 3.12 mg/kg/day.

As to `O=NN(CCCl)C(=O)N(Cc1ccco1)C1O[C@H](CO)[C@@H](O)[C@H]1O` (stereo partly drawn) [Compound 14, 1-(2-chloroethyl)-1-nitroso-3-furfuryl-3-(D-ribofuranosyl)urea], the maximal tolerated dose (MTD) at 168 h in data set [2] was found to be 100 mg/kg/day. Further, the “Toxic (number of mice died/number of mice used)” value in data set [1] (200 mg/kg/day i.p., 5 days) is on record as 5/5. Besides, in data set [1], the “Therapeutic index (MTD/MED)” value is 64. Further, in data set [1] (setting [4]), the inhibition in vivo at 0.39 mg/kg amounted to 18.4%, the inhibition in vivo at 0.78 mg/kg was found to be 30.6%, the inhibition in vivo at 1.56 mg/kg is 100% and the inhibition in vivo at 25 mg/kg worked out at 100%. The inhibition in vivo at 6.25 mg/kg in data set [1] (setting [5]) came to 100%. The inhibition in vivo at 100 mg/kg in data set [1] (setting [6]) worked out at 100%. Also, the minimal effective dose in data set [1] (setting [7]) worked out at 1.56 mg/kg/day.

Take `O=NN(CCCl)C(=O)N(Cc1ccccc1)C1O[C@H](CO)[C@@H](O[C@H]2O[C@H](CO)[C@@H](O)[C@H](O)[C@H]2O)[C@H](O)[C@H]1O` (some centres unmarked): the “therapeutic index … of GANU” value in data set [1] is listed as “about 8 times”.
